Results taken from PMC4893628, “Chalcone-based Selective Inhibitors of a C4 Plant Key Enzyme as Novel Potential Herbicides” (Scientific Reports, 2016).
Read-outs that look alike come from different tables or passages of the source.

Experiments:
Assay type in all cases: cell-based
[1] = tested on: Corynebacterium glutamicum ATCC13032; assay: Bacterial growth in microscale cultivation, C. glutamicum; conditions: for activity at 55 µM / activity at 110 µM / activity at 550 µM / activity at 4 µM / activity at 40 µM / activity at 400 µM: Corynebacterium glutamicum; for activity at 55 µM / activity at 110 µM / activity at 550 µM / Lag Phase / activity at 4 µM / activity at 40 µM / activity at 400 µM: relative to control
Summary of the method: (§1)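 In a BioLector microscale system shaken at 1200 rpm, growth was tracked by backscatter at 620 nm, and final signal, growth rate (h⁻¹) and lag-phase length were scored against DMSO-only controls. Starting OD600 was 0.5, or 0.25 for B. subtilis. Inhibitors came from DMSO stocks, with trans-chalcone capped at 400 μM and 2'-hydroxychalcone at 100 μM.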

Bacillus subtilis 168 = assay: Bacterial growth in microscale cultivation, B. subtilis; conditions: for activity at 55 µM / activity at 110 µM / activity at 550 µM / Lag Phase / activity at 4 µM / activity at 40 µM / activity at 400 µM: relative to control; for Influence on bacterial growth: highest concentration tested (10× IC50) if not stated otherwise
Summary of the method: as §1

[2] = tested on: Escherichia coli K-12 MG1655; assay: Bacterial growth in microscale cultivation, E. coli; conditions: relative to control; for activity at 55 µM / activity at 550 µM / activity at 4 µM / activity at 40 µM / activity at 400 µM: Escherichia coli
Summary of the method: as §1

What does the source list for `O=C(/C=C/c1ccccc1)c1cc(O)ccc1O` [Compound 5, 2′,5′-Dihydroxychalcone]?
growth ([1]; 550 μM, minimal media): abolished growth; activity at 55 µM ([1]; ATCC13032, complex medium, 55 µM, read-out: Final Backscatter): 106%; activity at 55 µM ([1]; ATCC13032, complex medium, 55 µM, read-out: Growth rate): 107%; activity at 110 µM ([1]; ATCC13032, complex medium, 110 µM, read-out: Final Backscatter): 103%; activity at 110 µM ([1]; ATCC13032, complex medium, 110 µM, read-out: Growth rate): 110%; activity at 550 µM ([1]; ATCC13032, complex medium, 550 µM, read-out: Final Backscatter): 118%; activity at 550 µM ([1]; ATCC13032, complex medium, 550 µM, read-out: Growth rate): 79%; activity at 55 µM ([1]; ATCC13032, minimal medium, 55 µM, read-out: Final Backscatter): 99.7%; activity at 55 µM ([1]; ATCC13032, minimal medium, 55 µM, read-out: Growth rate): 86.9%; activity at 110 µM ([1]; ATCC13032, minimal medium, 110 µM, read-out: Final Backscatter): 101%; activity at 110 µM ([1]; ATCC13032, minimal medium, 110 µM, read-out: Growth rate): 79.5%; activity at 550 µM ([1]; ATCC13032, minimal medium, 550 µM, read-out: Final Backscatter): 18.8%; Influence on bacterial growth ([1]; Minimal medium, highest concentration tested (10× IC50) if not stated otherwise): μ↓ (≥IC50), no growth (10× IC50); Lag Phase ([1]; complex medium, 55 µM): 96,2%; Lag Phase ([1]; complex medium, 110 µM): 98,4%; Lag Phase ([1]; complex medium, 550 µM): 120,7%; Lag Phase ([1]; minimal medium, 55 µM): 114,0%; Lag Phase ([1]; minimal medium, 110 µM): 133,1%; growth (Bacillus subtilis 168; 550 μM, minimal media): abolished growth; activity at 55 µM (Bacillus subtilis 168; Bacillus subtilis, 168, complex medium, 55 µM, read-out: Final Backscatter): 96.2%; activity at 55 µM (Bacillus subtilis 168; Bacillus subtilis, 168, complex medium, 55 µM, read-out: Growth rate): 108%; activity at 110 µM (Bacillus subtilis 168; Bacillus subtilis, 168, complex medium, 110 µM, read-out: Final Backscatter): 98%; activity at 110 µM (Bacillus subtilis 168; Bacillus subtilis, 168, complex medium, 110 µM, read-out: Growth rate): 108%; activity at 550 µM (Bacillus subtilis 168; Bacillus subtilis, 168, complex medium, 550 µM, read-out: Final Backscatter): 76.3%; activity at 55 µM (Bacillus subtilis 168; Bacillus subtilis, 168, minimal medium, 55 µM, read-out: Final Backscatter): 96.4%; activity at 55 µM (Bacillus subtilis 168; Bacillus subtilis, 168, minimal medium, 55 µM, read-out: Growth rate): 107%; activity at 110 µM (Bacillus subtilis 168; Bacillus subtilis, 168, minimal medium, 110 µM, read-out: Final Backscatter): 102%; activity at 110 µM (Bacillus subtilis 168; Bacillus subtilis, 168, minimal medium, 110 µM, read-out: Growth rate): 110%; activity at 550 µM (Bacillus subtilis 168; Bacillus subtilis, 168, minimal medium, 550 µM, read-out: Final Backscatter): 30.5%; Influence on bacterial growth (Bacillus subtilis 168; Complex medium): fbs↓ lag↑; Influence on bacterial growth (Bacillus subtilis 168; Minimal medium): no growth (10× IC50); Lag Phase (Bacillus subtilis 168; complex medium, 55 µM): 102,3%; Lag Phase (Bacillus subtilis 168; complex medium, 110 µM): 109,3%; Lag Phase (Bacillus subtilis 168; complex medium, 550 µM): 177,1%; Lag Phase (Bacillus subtilis 168; minimal medium, 55 µM): 103,5%; Lag Phase (Bacillus subtilis 168; minimal medium, 110 µM): 108,5%; activity at 55 µM ([2]; MG1655, complex medium, 55 µM, read-out: Final Backscatter): 101%; activity at 55 µM ([2]; MG1655, complex medium, 55 µM, read-out: Growth rate): 103%; activity at 550 µM ([2]; MG1655, complex medium, 550 µM, read-out: Final Backscatter): 103%; activity at 55 µM ([2]; MG1655, minimal medium, 55 µM, read-out: Final Backscatter): 99.1%; activity at 55 µM ([2]; MG1655, minimal medium, 55 µM, read-out: Growth rate): 122%; activity at 550 µM ([2]; MG1655, minimal medium, 550 µM, read-out: Final Backscatter): 96.4%; Lag Phase ([2]; complex medium, 55 µM): 103,1%; Lag Phase ([2]; complex medium, 550 µM): 117,2%; Lag Phase ([2]; minimal medium, 55 µM): 105,9%; Lag Phase ([2]; minimal medium, 550 µM): 103,0%

Which activity at 4 µM ([1]; ATCC13032, complex medium, 4 µM, read-out: Final Backscatter) does the source give for `O=C(/C=C/c1ccc(O)cc1)c1ccc(O)cc1O` [Compound 6, 2′,4′,4-Trihydroxychalcone] here?
The activity at 4 µM was 99.8%.

And the activity at 4 µM ([1]; ATCC13032, complex medium, 4 µM, read-out: Growth rate)?
The activity at 4 µM was 99.5%.

And the activity at 40 µM ([1]; ATCC13032, complex medium, 40 µM, read-out: Final Backscatter)?
Its activity at 40 µM is 98.2%.

And the activity at 40 µM ([1]; ATCC13032, complex medium, 40 µM, read-out: Growth rate)?
The activity at 40 µM was 101%.

And the activity at 400 µM ([1]; ATCC13032, complex medium, 400 µM, read-out: Final Backscatter)?
Its activity at 400 µM is 97.7%.

What about the activity at 400 µM ([1]; ATCC13032, complex medium, 400 µM, read-out: Growth rate) of the same compound?
The activity at 400 µM was 79.8%.

And the activity at 4 µM ([1]; ATCC13032, minimal medium, 4 µM, read-out: Final Backscatter)?
Its activity at 4 µM is 100%.

What about the activity at 4 µM ([1]; ATCC13032, minimal medium, 4 µM, read-out: Growth rate) of the same compound?
The activity at 4 µM was 101%.

What about the activity at 40 µM ([1]; ATCC13032, minimal medium, 40 µM, read-out: Final Backscatter) of the same compound?
Its activity at 40 µM is 101%.

And the activity at 40 µM ([1]; ATCC13032, minimal medium, 40 µM, read-out: Growth rate)?
The activity at 40 µM was 97.7%.

And the activity at 400 µM ([1]; ATCC13032, minimal medium, 400 µM, read-out: Final Backscatter)?
The activity at 400 µM was 101%.

And the activity at 400 µM ([1]; ATCC13032, minimal medium, 400 µM, read-out: Growth rate)?
Its activity at 400 µM is 80.5%.

And the “Lag Phase” value ([1]; complex medium, 4 µM)?
The value was 99,3%.

And the “Lag Phase” value ([1]; complex medium, 40 µM)?
Its value is 101,3%.

And the “Lag Phase” value ([1]; complex medium, 400 µM)?
The value was 105,3%.

What about the “Lag Phase” value ([1]; minimal medium, 4 µM) of the same compound?
Its value is 98,5%.

And the “Lag Phase” value ([1]; minimal medium, 40 µM)?
Its value is 101,5%.

What about the “Lag Phase” value ([1]; minimal medium, 400 µM) of the same compound?
Its value is 127,6%.

And the activity at 4 µM (Bacillus subtilis 168; Bacillus subtilis, 168, complex medium, 4 µM, read-out: Final Backscatter)?
Its activity at 4 µM is 97.3%.

And the activity at 4 µM (Bacillus subtilis 168; Bacillus subtilis, 168, complex medium, 4 µM, read-out: Growth rate)?
Its activity at 4 µM is 107%.

And the activity at 40 µM (Bacillus subtilis 168; Bacillus subtilis, 168, complex medium, 40 µM, read-out: Final Backscatter)?
Its activity at 40 µM is 99.9%.

What about the activity at 40 µM (Bacillus subtilis 168; Bacillus subtilis, 168, complex medium, 40 µM, read-out: Growth rate) of the same compound?
The activity at 40 µM was 107%.

And the activity at 400 µM (Bacillus subtilis 168; Bacillus subtilis, 168, complex medium, 400 µM, read-out: Final Backscatter)?
Its activity at 400 µM is 91.1%.

What about the activity at 400 µM (Bacillus subtilis 168; Bacillus subtilis, 168, complex medium, 400 µM, read-out: Growth rate) of the same compound?
Its activity at 400 µM is 109%.

And the activity at 4 µM (Bacillus subtilis 168; Bacillus subtilis, 168, minimal medium, 4 µM, read-out: Final Backscatter)?
Its activity at 4 µM is 100%.

And the activity at 4 µM (Bacillus subtilis 168; Bacillus subtilis, 168, minimal medium, 4 µM, read-out: Growth rate)?
The activity at 4 µM was 103%.

What about the activity at 40 µM (Bacillus subtilis 168; Bacillus subtilis, 168, minimal medium, 40 µM, read-out: Final Backscatter) of the same compound?
Its activity at 40 µM is 99.7%.

And the activity at 40 µM (Bacillus subtilis 168; Bacillus subtilis, 168, minimal medium, 40 µM, read-out: Growth rate)?
Its activity at 40 µM is 99%.

What about the activity at 400 µM (Bacillus subtilis 168; Bacillus subtilis, 168, minimal medium, 400 µM, read-out: Final Backscatter) of the same compound?
Its activity at 400 µM is 101%.

What about the activity at 400 µM (Bacillus subtilis 168; Bacillus subtilis, 168, minimal medium, 400 µM, read-out: Growth rate) of the same compound?
The activity at 400 µM was 88.2%.

And the “Lag Phase” value (Bacillus subtilis 168; complex medium, 4 µM)?
The value was 100,0%.

And the “Lag Phase” value (Bacillus subtilis 168; complex medium, 40 µM)?
The value was 102,6%.

What about the “Lag Phase” value (Bacillus subtilis 168; complex medium, 400 µM) of the same compound?
Its value is 128,1%.

And the “Lag Phase” value (Bacillus subtilis 168; minimal medium, 4 µM)?
Its value is 98,9%.

And the “Lag Phase” value (Bacillus subtilis 168; minimal medium, 40 µM)?
Its value is 102,2%.

What about the “Lag Phase” value (Bacillus subtilis 168; minimal medium, 400 µM) of the same compound?
Its value is 116,3%.

What about the activity at 4 µM ([2]; MG1655, complex medium, 4 µM, read-out: Final Backscatter) of the same compound?
The activity at 4 µM was 98.8%.

And the activity at 4 µM ([2]; MG1655, complex medium, 4 µM, read-out: Growth rate)?
Its activity at 4 µM is 96%.

And the activity at 40 µM ([2]; MG1655, complex medium, 40 µM, read-out: Final Backscatter)?
Its activity at 40 µM is 99.5%.

And the activity at 40 µM ([2]; MG1655, complex medium, 40 µM, read-out: Growth rate)?
Its activity at 40 µM is 99.1%.

What about the activity at 400 µM ([2]; MG1655, complex medium, 400 µM, read-out: Final Backscatter) of the same compound?
The activity at 400 µM was 95%.

And the activity at 400 µM ([2]; MG1655, complex medium, 400 µM, read-out: Growth rate)?
Its activity at 400 µM is 89.8%.

What about the activity at 4 µM ([2]; MG1655, minimal medium, 4 µM, read-out: Final Backscatter) of the same compound?
The activity at 4 µM was 100%.

And the activity at 4 µM ([2]; MG1655, minimal medium, 4 µM, read-out: Growth rate)?
The activity at 4 µM was 101%.

And the activity at 40 µM ([2]; MG1655, minimal medium, 40 µM, read-out: Final Backscatter)?
The activity at 40 µM was 98.8%.

And the activity at 40 µM ([2]; MG1655, minimal medium, 40 µM, read-out: Growth rate)?
Its activity at 40 µM is 107%.

What about the activity at 400 µM ([2]; MG1655, minimal medium, 400 µM, read-out: Final Backscatter) of the same compound?
The activity at 400 µM was 97.7%.

And the activity at 400 µM ([2]; MG1655, minimal medium, 400 µM, read-out: Growth rate)?
The activity at 400 µM was 96.4%.

And the “Lag Phase” value ([2]; complex medium, 4 µM)?
The value was 100,0%.

And the “Lag Phase” value ([2]; complex medium, 40 µM)?
Its value is 100,0%.

And the “Lag Phase” value ([2]; complex medium, 400 µM)?
The value was 107,4%.

What about the “Lag Phase” value ([2]; minimal medium, 4 µM) of the same compound?
Its value is 101,8%.

What about the “Lag Phase” value ([2]; minimal medium, 40 µM) of the same compound?
Its value is 103,5%.

And the “Lag Phase” value ([2]; minimal medium, 400 µM)?
The value was 101,8%.
